Measurements: patent publication US10695433B2, “Pyrrolobenzodiazepine-antibody conjugates” (MEDIMMUNE LIMITED, priority 2012, dated 2020)

System: K562 human chronic myeloid leukaemia cells
Assay: K562 assay (MTT cytotoxicity of released compounds)
Type: cell-based
Settings: drug for 1 hour or 96 hours, MTT readout
Description: K562 human chronic myeloid leukaemia cells were maintained in RPM1 1640 medium supplemented with 10% fetal calf serum and 2 mM glutamine at 37° C. in a humidified atmosphere containing 5% CO2 and were incubated with a specified dose of drug for 1 hour or 96 hours at 37° C. in the dark. The incubation was terminated by centrifugation (5 min, 300 g) and the cells were washed once with drug-free medium. Following the appropriate drug treatment, the cells were transferred to 96-well microtiter plates (10^4 cells per well, 8 wells per sample). Plates were then kept in the dark at 37° C. in a humidified atmosphere containing 5% CO2. The assay is based on the ability of viable cells to reduce a yellow soluble tetrazolium salt, 3-(4,5-dimethylthiazol-2-yl)-2,5-diphenyl-2H-tetrazolium bromide (MTT, Aldrich-Sigma), to an insoluble purple formazan precipitate. Following incubation of the plates for 4 days (to allow control cells to increase in number by approximately 10 fold), 20 μL of MTT solution (5 mg/mL in phosphate-buffered saline) was added to each well and the plates further incubated for 5 h. The plates were then centrifuged for 5 min at 300 g and the bulk of the medium pipetted from the cell pellet leaving 10-20 μL per well. […] The optical density was then read at a wavelength of 550 nm on a Titertek Multiscan ELISA plate reader, and a dose-response curve was constructed.

Q: `COc1cc2c(cc1OCCCCCOc1cc3c(cc1OC)C(=O)N1C=C(C)C[C@H]1C=N3)N=C[C@@H]1CC(C)=CN1C2=O` [RelE] was tested. Which IC50 did it give?
A: Its IC50 is 0.425 nM.
